Assay results as given in patent publication US10035989B2, “Method for producing polyunsaturated fatty acids in transgenic plants” (BASF Plant Science GmbH, priority 2004, dated 2018).
Like-named read-outs stand apart in the source and are kept apart here.

Experiments:
ELO(Ci) elongase = assay: Expression of ELO(Ci) in yeast (feeding, GLC of FAMEs); format: cell-based, Ciona intestinalis; conditions: amounts fed: in each case 250 μM
Method: The yeasts were subsequently plated onto complete uracil dropout minimal medium supplemented with 2% glucose. […] Fatty acid methyl esters (FAMEs) were prepared from the yeast cell sediments by acid methanolysis. […] The FAMEs were extracted by twice extracting with petroleum ether (PE). […] (holding). […] Thereafter, the FAMEs were analyzed via GLC.

ELO(XI) elongase = assay: Expression of ELO(XI) in yeast (feeding, GLC of FAMEs); format: cell-based, Xenopus laevis; conditions: amounts fed: in each case 250 μM
Method: (§1) The yeasts were subsequently plated onto complete uracil dropout minimal medium supplemented with 2% glucose.
(§2) Fatty acid methyl esters (FAMEs) were prepared from the yeast cell sediments by acid methanolysis. […] The FAMEs were extracted by twice extracting with petroleum ether (PE). […] (holding).
(§3) Thereafter, the FAMEs were analyzed via GLC.

OtElo2 (Δ6-elongase) = format: cell-based, Ostreococcus tauri
TL16y2 Δ5-elongase = assay: Expression of TL16y2 in yeast (feeding experiments, GC); format: cell-based, Thraustochytrium ssp.
Method: as §1
(§4) The substrate specificity of BioTaurELO1 was determined after expression and feeding of various fatty acids (FIG. 6). […] After the fatty acids had been extracted from the yeasts, they were transmethylated and separated by gas chromatography. The elongation products originating from the two fatty acids which had been fed are identified by arrows.
The functionality and substrate specificity of TL16y2 were determined after expression and feeding of various fatty acids. […] The feeding experiments were carried out in the same manner as described for BioTaurELO1. The substrates which have been fed can be detected in large amounts in all transgenic yeasts. […] This means that the gene TL16y2 has been expressed functionally.

BioTaurELO1 Δ5-elongase = format: cell-based, Thraustochytrium aureum ATCC34304
Method: as §1, §4

OtElo2.1 (Δ6-elongase) = format: cell-based, Ostreococcus tauri
OtDes6.1 (Δ6-desaturase) = assay: Substrate specificity of the desaturase OtDes6.1 in yeast (feeding, GLC of FAMEs); conditions: conversion rate of the substrate fed to yeast with pYES2-OtDes6.1; mean (n=3)
Text: The Saccharomyces cerevisiae strain 334 was transformed by electroporation (1500 v) with the vector pYES2.1-OtDes6.1. A yeast which was transformed with the blank vector pYES2 was used as the control. The transformed yeasts were selected on complete minimal dropout uracil medium (CMdum) agar plates supplemented with 2% glucose. After the selection, in each case three transformants were selected for the further functional expression.
To express the OtDes6.1 desaturase, precultures of in each case 5 ml of dropout uracil CMdum liquid medium supplemented with 2% (w/v) raffinose were inoculated with the selected transformants and incubated for 2 days at 30° C., 200 rpm. 5 ml of CMdum liquid medium (without uracil) supplemented with 2% raffinose and 300 μm of various fatty acids were then inoculated with the precultures to an OD600 of 0.05. Expression was induced by addition of 2% (w/v) galactose. The cultures were incubated for a further 96 hours at 20° C. […]
The yeasts which had been transformed with the vector pYES2-OtDes6.1 were cultured in minimal medium in the presence of the fatty acids detailed. […] Thereafter, the FAMEs were analyzed via GLC. […] The activity corresponds to the conversion rate calculated using the formula [substrate/(substrate+product)*100].

[1] = system: biosynthesis of DHA (OmElo3, Euglena gracilis Δ4-desaturase, Phaeodactylum tricornutum Δ5-desaturase); assay: Reconstitution of the synthesis of DHA in yeast by coexpressing OmElo3, EgD4 and PtD5; format: cell-based, Saccharomyces cerevisiae
Method: The reconstitution of the biosynthesis of DHA (22:6 ω3) was carried out starting from EPA (20:5 ω3) or stearidonic acid (18:4 ω3) by coexpressing OmElo3 together with the Euglena gracilis Δ4-desaturase or the Phaeodactylum tricornutum Δ5-desaturase and the Euglena gracilis Δ4-desaturase. To this end, the expression vectors pYes2-EgD4 and pESCLeu-PtD5 were additionally constructed. The abovementioned yeast strain which is already transformed with pYes3-OmElo3 (SEQ ID NO: 55), was then transformed further with pYes2-EgD4, or simultaneously with pYes2-EgD4 and pESCLeu-PtD5. […] The cultures were subsequently incubated for a further 120 hours at 15° C.
The additional introduction of the EEgΔ4-desaturase led to the conversion of 22:5 ω3 into 22:6 ω3 DHA. After coexpression of OmElo3 and EgD4, up to 3% DHA was detected in yeasts.
In a further coexpression experiment, OmElo3, EgD4 and a Δ5-desaturase from P. tricomutum (PtD5) were expressed together. The transgenic yeasts were fed stearidonic acid (18:4 ω3) and analyzed (FIG. 4). OmElo3 elongated the fed fatty acid 18:4 ω3 to give 20:4 ω3 (60% elongation). The latter was desaturated by PtD5 to give 20:5 ω3. The PtD5 activity amounted to 15%. Furthermore, 20:5 ω3 was elongated by […] to give 22:5 ω3. Thereafter, the newly synthesized 22:5 ω3 was desaturated to give 22:6 ω3 (DHA). Up to 0.7% of DHA was obtained in these experiments.

PtELO6 (Δ6-elongase) = assay: Substrate specificity of PtELO6 in yeast (feeding, GLC of FAMEs); format: cell-based, Phaeodactylum tricornutum; conditions: fatty acids fed to yeast pYES2-PtELO6
OtElo1.2 (Δ5-elongase) = format: cell-based, Ostreococcus tauri; conditions: yeast transformed with pOTE1.2 (Table 18)
OtElo1 (Δ5-elongase) = format: cell-based, Ostreococcus tauri; conditions: yeast transformed with pOTE1 (Table 18)
TpELO3 (Δ6-elongase) = assay: Expression of TpELO3 in yeast (feeding, GLC of FAMEs); format: cell-based, Thalassiosira pseudonana
Method: as §1, §2, §3

OmElo3 elongase = assay: Functional characterization of OmELO3 in yeast (fatty acid feeding, GLC of FAMEs); format: cell-based, Oncorhynchus mykiss; conditions: expression in yeast, different substrates
OmELO2 = assay: Functional characterization of OmELO2 in yeast (fatty acid feeding, GLC of FAMEs); format: cell-based, Oncorhynchus mykiss; conditions: expression in yeast
[2] = 250 μm fatty acid fed (Table 7)
[3] = fatty acid fed to yeast expressing BioTaurELO1

CCCCCCCCCCCCCCCC(=O)O [16:0]
Conversion of the starting materials by ELO(Ci) in % (ELO(Ci) elongase): 0% | Conversion of the starting materials by ELO(XI) in % (ELO(XI) elongase): 3%

CCCCCC/C=C\CCCCCCCC(=O)O [16:1^Δ9, palmitoleic acid]
Conversion of the starting materials by ELO(Ci) in % (ELO(Ci) elongase): 0% | Conversion of the starting materials by ELO(XI) in % (ELO(XI) elongase): 0%

CCCCCCCCCCCCCCCCCC(=O)O [18:0]
Conversion of the starting materials by ELO(Ci) in % (ELO(Ci) elongase): 0% | Conversion of the starting materials by ELO(XI) in % (ELO(XI) elongase): 2%

CCCCC/C=C\C/C=C\CCCCCCCC(=O)O [18:2^Δ9,12, linoleic acid]
Conversion of the starting materials by ELO(Ci) in % (ELO(Ci) elongase): 23% | Conversion of the starting materials by ELO(XI) in % (ELO(XI) elongase): 3%

CCCCC/C=C\C/C=C\CC/C=C\CCCC(=O)O [18:3^Δ5,9,12, pinolenic acid (all-cis-5,9,12-octadecatrienoic acid)]
Conversion of the starting materials by ELO(Ci) in % (ELO(Ci) elongase): 38% | Conversion of the starting materials by ELO(XI) in % (ELO(XI) elongase): 13%

CCCCC/C=C\C/C=C\C/C=C\CCCCC(=O)O [18:3^Δ6,9,12, γ-linolenic acid]
Conversion rate of OtElo2 (in %) (OtElo2 (Δ6-elongase)): 15.3% | conversion rate in % (TL16y2 Δ5-elongase; [2]): 74.9% | Conversion of the starting materials by ELO(Ci) in % (ELO(Ci) elongase): 10% | Conversion of the starting materials by ELO(XI) in % (ELO(XI) elongase): 12% | conversion rate (BioTaurELO1 Δ5-elongase): 65.28% | Conversion rate of OtElo2.2 (in %) (OtElo2.1 (Δ6-elongase)): 55.7%

CC/C=C\C/C=C\C/C=C\CCCCCCCC(=O)O [18:3^Δ9,12,15, α-linolenic acid]
Conversion of the starting materials by ELO(Ci) in % (ELO(Ci) elongase): 25% | Activity in % (OtDes6.1 (Δ6-desaturase)): 64.6% | Conversion of the starting materials by ELO(XI) in % (ELO(XI) elongase): 3%

CC/C=C\C/C=C\C/C=C\C/C=C\CCCCC(=O)O [18:4^Δ6,9,12,15, stearidonic acid]
elongation of 18:4 ω3 to 20:4 ω3 ([1]; coexpression of OmElo3, EgD4 and PtD5, fed 18:4 ω3): 60% | Conversion rate of OtElo2 (in %) (OtElo2 (Δ6-elongase); yeast transformed with pOTE2 (Table 19)): 21.1% | conversion rate in % (TL16y2 Δ5-elongase; [2]): 79.4% | Conversion of the starting materials by ELO(Ci) in % (ELO(Ci) elongase): 3% | Conversion of the starting materials by ELO(XI) in % (ELO(XI) elongase): 20% | conversion rate (BioTaurELO1 Δ5-elongase; [3]): 65.66% | Conversion rate of OtElo2.2 (in %) (OtElo2.1 (Δ6-elongase); yeast transformed with pOTE2.1 (Table 19)): 70.4%

CCCCC/C=C\C/C=C\C/C=C\CCCCCCC(=O)O [20:3^Δ8,11,14, dihomo-γ-linolenic acid]
conversion by PtELO6 (PtELO6 (Δ6-elongase)): not converted | Conversion of the starting materials by ELO(Ci) in % (ELO(Ci) elongase): 10% | Conversion of the starting materials by ELO(XI) in % (ELO(XI) elongase): 5%

CC/C=C\C/C=C\C/C=C\CCCCCCCCCC(=O)O [20:3^Δ11,14,17]
conversion by PtELO6 (PtELO6 (Δ6-elongase)): not converted | Conversion of the starting materials by ELO(Ci) in % (ELO(Ci) elongase): 8% | Conversion of the starting materials by ELO(XI) in % (ELO(XI) elongase): 13%

CCCCC/C=C\C/C=C\C/C=C\C/C=C\CCCC(=O)O [20:4^Δ5,8,11,14, arachidonic acid]
Conversion rate of OtElo1.2 (in %) (OtElo1.2 (Δ5-elongase)): 38.0% | conversion by PtELO6 (PtELO6 (Δ6-elongase)): not converted | conversion rate in % (TL16y2 Δ5-elongase; [2]): 20.3% | Conversion of the starting materials by ELO(Ci) in % (ELO(Ci) elongase): 10% | Conversion rate of OtElo1 (in %) (OtElo1 (Δ5-elongase)): 10.8 ± 0.6% | Conversion of the starting materials by ELO(XI) in % (ELO(XI) elongase): 15% | conversion rate (BioTaurELO1 Δ5-elongase; [3]): 14.47%

CC/C=C\C/C=C\C/C=C\C/C=C\C/C=C\CCCC(=O)O [20:5^Δ5,8,11,14,17, eicosapentaenoic acid]
elongation of 20:5 ω3 to 22:5 ω3 ([1]; yeast with pYes3-OmElo3 and blank vector pYes2, fed 20:5 ω3): 65% | Conversion rate of OtElo1.2 (in %) (OtElo1.2 (Δ5-elongase)): 68.6% | conversion rate in % (TL16y2 Δ5-elongase; 50 μm fatty acid fed): 41% | conversion rate in % (TL16y2 Δ5-elongase; [2]): 8% | Conversion of the starting materials by ELO(Ci) in % (ELO(Ci) elongase): 15% | Conversion rate of OtElo1 (in %) (OtElo1 (Δ5-elongase)): 46.8 ± 3.6% | Conversion of the starting materials by ELO(XI) in % (ELO(XI) elongase): 10% | conversion rate (BioTaurELO1 Δ5-elongase; [3]): 22.01% | conversion rate (BioTaurELO1 Δ5-elongase; when feeding GLA and EPA together): 9.99%

CCCCCC=CCC=CCC=CCC=CCCCCCC(=O)O [22:4^Δ7,10,13,16, docosatetraenoic acid]
conversion by PtELO6 (PtELO6 (Δ6-elongase)): not converted | Conversion of the starting materials by ELO(Ci) in % (ELO(Ci) elongase): 0% | Conversion of the starting materials by ELO(XI) in % (ELO(XI) elongase): 0%

CC/C=C\C/C=C\C/C=C\C/C=C\C/C=C\C/C=C\CCC(=O)O [22:6^Δ4,7,10,13,16,19, docosahexaenoic acid]
Conversion of the starting materials by ELO(Ci) in % (ELO(Ci) elongase): 0% | Conversion of the starting materials by ELO(XI) in % (ELO(XI) elongase): 0%

eicosadienoic acid [20:2^Δ11,14]
conversion by PtELO6 (PtELO6 (Δ6-elongase)): not converted

B1: TpELO3: Δ6-elongase from Thalassiosira pseudonana, SEQ ID NO: 45 (protein, listed as Thalassiosira pseudonana)
chain: MDAYNAAMDKIGAAIIDWSDPDGKFRADREDWWLCDFRSAITIALIYIAFVILGSAVMQSLPAMDPYPIKFLYNVSQIFLCAYMTVEAGFLAYRNGYTVMPCNHFNVNDPPVANLLWLFYISKVWDFWDTIFIVLGKKWRQLSFLHVYHHTTIFLFYWLNANVLYDGDIFLTILLNGFIHTVMYTYYFICMHTKDSKTGKSLPIWWKSSLTAFQLLQFTIMMSQATYLVFHGCDKVSLRITIVYFVSLLSLFFLFAQFFVQSYMAPKKKKSA
modifications: CDS (1)..(819): Delta-5 elongase
% conversion, column 5 (TpELO3 (Δ6-elongase); fed 250 μm arachidonic acid): 0% | % conversion, column 6 (TpELO3 (Δ6-elongase); fed 250 μm eicosapentaenoic acid): 0% | % conversion, column 4 (TpELO3 (Δ6-elongase); fed 250 μm stearidonic acid): 85% | % conversion, column 3 (TpELO3 (Δ6-elongase); fed 250 μm γ-linolenic acid): 75%

B2: OmELO3: elongase from Oncorhynchus mykiss, SEQ ID NO: 53 (protein)
chain: METFNYKLNMYIDSWMGPRDERVQGWLLLDNYPPTFALTVMYLLIVWMGPKYMRHRQPVSCRGLLLVYNLGLTILSFYMFYEMVSAVWHGDYNFFCQDTHSAGETDTKIINVLWWYYFSKLIEFMDTFFFILRKNNHQITFLHIYHHASMLNIWWFVMNWVPCGHSYFGASLNSFIHVLMYSYYGLSAVPALRPYLWWKKYITQVQLIQFFLTMSQTICAVIWPCDFPRGWLYFQIFYVITLIALFSNFYIQTYKKHLVSQKKEYHQNGSVASLNGHVNGVTPTETITHRKVRGD
modifications: Oncorhynchus mykiss; CDS (1)..(885): Delta-5 elongase
elongase activity (OmElo3 elongase): pronounced activity

B3: OmELO2: gene product from Oncorhynchus mykiss, SEQ ID NO: 51, expressed in yeast (protein)
chain: MASTWQSVQSMRQWILENGDKRTDPWLLVYSPMPVAIIFLLYLGVVWAGPKLMKRREPVDLKAVLIVYNFAMVCLSVYMFHEFLVTSLLSNYSYLCQPVDYSTSPLAMRMAKVCWWFFFSKVIELADTVFFILRKKNSQLTFLHVYHHGTMIFNWWAGVKYLAGGQSFFIGLLNTFVHIVMYSYYGLAALGPHTQKYLWWKRYLTSLQLLQFVLLTTHTGYNLFTECDFPDSMNAVVFAYCVSLIALFSNFYYQSYLNRKSKKT
modifications: Oncorhynchus mykiss; CDS (1)..(795): Delta-5 elongase
elongase activity (OmELO2): no elongase activity
